# In ChEMBL document CHEMBL1122571, “Design and synthesis of tetrahedral intermediate analogues as potential dihydroorotase inhibitors” (J Med Chem, 1984):
# Biological target: Multifunctional protein CAD (Mus musculus, UniProt B2RQC6)
# Assay: Compound was evaluated for the inhibition of dihydroorotase enzyme from mouse Ehrlich ascites at the concentration of 10 uM and at pH 7.37
# Details: read-out: I50
# Sequence of Multifunctional protein CAD (B2RQC6 whole entry): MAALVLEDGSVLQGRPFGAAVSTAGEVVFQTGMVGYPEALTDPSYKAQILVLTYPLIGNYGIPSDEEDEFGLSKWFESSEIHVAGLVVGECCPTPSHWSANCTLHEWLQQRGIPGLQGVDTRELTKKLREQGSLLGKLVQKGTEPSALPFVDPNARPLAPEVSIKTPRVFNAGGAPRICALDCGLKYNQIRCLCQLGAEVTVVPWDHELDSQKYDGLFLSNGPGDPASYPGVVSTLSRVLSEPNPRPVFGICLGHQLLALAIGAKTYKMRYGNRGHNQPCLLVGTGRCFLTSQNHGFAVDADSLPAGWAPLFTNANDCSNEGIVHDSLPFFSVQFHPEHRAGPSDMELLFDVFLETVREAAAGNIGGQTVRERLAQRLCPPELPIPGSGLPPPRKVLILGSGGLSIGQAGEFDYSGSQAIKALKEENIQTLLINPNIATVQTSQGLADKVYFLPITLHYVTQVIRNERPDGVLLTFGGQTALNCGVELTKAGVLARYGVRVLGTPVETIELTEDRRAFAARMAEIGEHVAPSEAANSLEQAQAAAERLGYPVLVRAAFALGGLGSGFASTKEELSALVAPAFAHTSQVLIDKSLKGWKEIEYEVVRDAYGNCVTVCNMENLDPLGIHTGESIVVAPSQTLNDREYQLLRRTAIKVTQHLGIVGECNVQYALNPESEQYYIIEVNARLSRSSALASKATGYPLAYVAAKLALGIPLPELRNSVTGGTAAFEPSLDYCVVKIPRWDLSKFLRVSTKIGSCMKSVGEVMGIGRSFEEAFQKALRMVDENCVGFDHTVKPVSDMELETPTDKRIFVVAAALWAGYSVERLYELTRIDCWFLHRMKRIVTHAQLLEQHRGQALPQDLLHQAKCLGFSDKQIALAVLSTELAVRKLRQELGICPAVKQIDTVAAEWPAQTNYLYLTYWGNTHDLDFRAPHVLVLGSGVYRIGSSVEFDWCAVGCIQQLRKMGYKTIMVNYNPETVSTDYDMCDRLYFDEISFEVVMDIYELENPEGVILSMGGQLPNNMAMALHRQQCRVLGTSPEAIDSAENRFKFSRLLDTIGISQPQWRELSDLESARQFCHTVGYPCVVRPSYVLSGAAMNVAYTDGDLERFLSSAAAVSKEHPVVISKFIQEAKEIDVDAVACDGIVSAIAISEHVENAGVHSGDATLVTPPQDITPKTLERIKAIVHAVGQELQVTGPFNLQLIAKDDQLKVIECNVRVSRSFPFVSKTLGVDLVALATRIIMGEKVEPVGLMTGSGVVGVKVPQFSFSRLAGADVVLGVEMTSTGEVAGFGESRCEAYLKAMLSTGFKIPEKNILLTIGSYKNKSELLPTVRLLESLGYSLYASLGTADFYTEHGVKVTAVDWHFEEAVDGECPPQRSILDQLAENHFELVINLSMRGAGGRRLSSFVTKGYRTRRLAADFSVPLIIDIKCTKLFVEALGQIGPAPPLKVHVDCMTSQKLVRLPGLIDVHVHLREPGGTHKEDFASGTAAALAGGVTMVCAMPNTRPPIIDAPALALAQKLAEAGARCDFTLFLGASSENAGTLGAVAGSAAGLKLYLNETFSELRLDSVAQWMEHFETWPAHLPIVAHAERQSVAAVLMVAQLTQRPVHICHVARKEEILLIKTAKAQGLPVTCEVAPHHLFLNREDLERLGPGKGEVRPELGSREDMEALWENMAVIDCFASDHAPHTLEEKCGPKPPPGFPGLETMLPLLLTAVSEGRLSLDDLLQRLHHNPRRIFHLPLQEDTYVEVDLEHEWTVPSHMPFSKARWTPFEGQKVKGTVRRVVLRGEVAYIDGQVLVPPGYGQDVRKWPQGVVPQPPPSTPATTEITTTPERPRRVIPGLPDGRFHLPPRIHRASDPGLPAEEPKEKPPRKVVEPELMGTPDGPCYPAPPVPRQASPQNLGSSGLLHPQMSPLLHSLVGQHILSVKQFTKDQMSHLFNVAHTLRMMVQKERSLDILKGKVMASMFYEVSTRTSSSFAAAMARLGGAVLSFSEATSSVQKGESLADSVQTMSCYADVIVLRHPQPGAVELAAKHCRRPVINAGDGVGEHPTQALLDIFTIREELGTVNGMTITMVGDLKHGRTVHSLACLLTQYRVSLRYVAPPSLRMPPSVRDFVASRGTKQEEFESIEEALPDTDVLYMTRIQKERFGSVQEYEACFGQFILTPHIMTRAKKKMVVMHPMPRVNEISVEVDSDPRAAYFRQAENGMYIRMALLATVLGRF
row,Structure (SMILES),IC50
1,C[S+]1([O-])=NC(=O)NC(C(=O)O)C1 (stereo not given),> 1000 µM
2,O=C1C[S+]([O-])CC(C(=O)O)N1 (stereo not given),180 µM
3,NC(=O)NC(CP(=O)(O)O)C(=O)O (stereo not given),> 1000 µM
4,O=C1NC(C(=O)O)CS(=O)(=O)N1 (stereo not given),520 µM
5,O=C1CSCC(C(=O)O)N1 (stereo not given),< 1000 µM
